Laboratory results reported in US7053178B2, “Synthetic peptides and kits for diagnosis of anti-phospholipid syndrome” (Yeda Research Development Co., LTD, priority 1998, dated 2006).
Where no end group is shown, it is not given here.

How the values were obtained:
anti-β2GPI mAb ILA-3 = assay: ELISA binding of ILA-3 mAb to phage-displayed hexapeptides; set-up: species or system human; scale not given here; conditions: ILA-3 mAb 5 μg/ml, 10^9 phage particles/well, O.D. at 405 nm
Protocol: (§1) (a) Epitope Library. The hexapeptide epitope library was kindly provided by George P. Smith (University of Missouri, Columbia, MO) and was constructed by use of the phage fd-derived vector fUSE5 as described (Scott and Smith, 1990). This library consists of 2×10^8 original phage clones each containing a hexapeptide fused to the minor coat protein PIII (Scott and Smith, 1990). (b) Anti-β2GPI mAbs. The human anti-β2GPI mAbs named ILA-1, ILA-3 and G-3 (IgM), were prepared by human-human hybridoma technique from PBL of an APS patient as described (George et al., 1998). Briefly, peripheral blood cells (PBL) were separated from whole blood by Ficoll-Hypaque gradient, the PBL were exposed to pokeweed mitogen for 5 days in order to enrich the B cell population and the lymphocytes were fused with the human lymphoblastoid cell line GM4672 in the presence of polyethyleneglycol (PEG 1500). After fusion, the cells were seeded into 96-well tissue culture plates with RPMI 1640, 10% FCS and hypoxanthine-aminopterin-thymidine (HAT) selection media. New clones were detected after 4–5 weeks, grown and screened for binding to β2GPI by ELISA. All clones were subjected 4 times to limiting dilution cloning procedures in regular medium. […] The hexapeptide epitope library of section (a) above was used as described (Scott and Smith, 1990). […]

anti-β2GPI mAb ILA-1 = assay: ELISA binding of ILA-1 mAb to phage-displayed hexapeptides; set-up: species or system human; conditions: ILA-1 mAb 5 μg/ml, 10^9 phage particles/well, O.D. at 405 nm
Protocol: as §1

anti-β2GPI mAb G-3 = assay: ELISA binding of G-3 mAb to phage-displayed hexapeptides; set-up: species or system human; scale not given here; conditions: G-3 mAb 5 μg/ml, 10^9 phage particles/well, O.D. at 405 nm
Protocol: (a) Epitope Library. The hexapeptide epitope library was kindly provided by George P. Smith (University of Missouri, Columbia, MO) and was constructed by use of the phage fd-derived vector fUSE5 as described (Scott and Smith, 1990). This library consists of 2×10^8 original phage clones each containing a hexapeptide fused to the minor coat protein PIII (Scott and Smith, 1990). (b) Anti-β2GPI mAbs. The human anti-β2GPI mAbs named ILA-1, ILA-3 and G-3 (IgM), were prepared by human-human hybridoma technique from PBL of an APS patient as described (George et al., 1998). Briefly, peripheral blood cells (PBL) were separated from whole blood by Ficoll-Hypaque gradient, the PBL were exposed to pokeweed mitogen for 5 days in order to enrich the B cell population and the lymphocytes were fused with the human lymphoblastoid cell line GM4672 in the presence of polyethyleneglycol (PEG 1500). After fusion, the cells were seeded into 96-well tissue culture plates with RPMI 1640, 10% FCS and hypoxanthine-aminopterin-thymidine (HAT) selection media. New clones were detected after 4–5 weeks, grown and screened for binding to β2GPI by ELISA. All clones were subjected 4 times to limiting dilution cloning procedures in regular medium. […] The hexapeptide epitope library of section (a) above was used as described (Scott and Smith, 1990). Briefly, a library sample containing 3.8×10^9 infectious phage particles was subjected to three rounds of selection (panning) and amplification. For each selection cycle a biotinylated mAb prepared as described in section (b) above (10 μg in the first panning and 1 μg for the others) was added in a total volume of 50 μl. The phages were preincubated with the biotinylated mAb overnight at 4° C., and the reaction mixtures were then layered in 1 ml PBS on streptavidin-coated 30-mm polystyrene petri dishes (Nunc, Kamstrup, Roskilde, Denmark) for 30 min at room temperature. Unbound phages were removed by extensive washings in PBS, and the remaining phages were eluted with 0.1M glycine-HCl, pH 2.2, and neutralized with Tris 1M. […]

| Substance | Binding O.D. (anti-β2GPI mAb ILA-1) | Binding O.D. (anti-β2GPI mAb G-3) | other results |
| --- | --- | --- | --- |
| KDKATF [K D K A T F] |  |  | Binding O.D. (anti-β2GPI mAb ILA-3): 1178 ± 101 O.D. |
| KTPRVT [K T P R V T] | 1201 ± 142 O.D. |  |  |
| LKTPRV [L K T P R V] | 975 ± 72 O.D. |  |  |
| TKLRVY [T K L R V Y] |  | 954 ± 62 O.D. |  |
| TLLRVY [T L L R V Y] |  | 869 ± 71 O.D. |  |
| TLRVYK [T L R V Y K] |  | 791 ± 33 O.D. |  |
